Where a name gives a salt, the structure may show the parent alone.

In general, melting point refers to the temperature of the solid-liquid transition.

For the compound `C[C@@H]1CCCN1CCc1ccc2cc(Br)ccc2c1` (as salt: HCl) [Example 2, (2R)-1-[2-(6-bromo-2-naphthyl)ethyl]-2-methylpyrrolidine], the melting point was 247.3 to 250.7 °C.

`C[C@@H]1CCCN1CCc1ccc2cc(C#N)ccc2c1` (as salt: hydrochloride) [Example 5, 6-{2-[(2R)-2-methyl-1-pyrrolidinyl]ethyl}-2-naphthonitrile]: the melting point fell in the range of 187.4 to 188.6 °C. For `C[C@@H]1CCCN1Cc1ccc2cc(-c3ccc(C#N)cc3)ccc2c1` (as salt: hydrochloride) [Example 6, 4-(6-{[(2R)-2-methyl-1-pyrrolidinyl]methyl}-2-naphthyl)benzonitrile] the value was 212.6 to 213.6 °C; for `C[C@@H]1CCCN1CCc1ccc2cc(-c3ccc(F)cc3)ccc2n1` (as salt: hydrochloride) [Example 43, 6-(4-fluorophenyl)-2-{2-[(2R)-2-methyl-1-pyrrolidinyl]ethyl}quinoline], 145 °C; for `CC(=O)c1cccc(-c2ccc3nc(CCN4CCC[C@H]4C)ccc3c2)c1` (as salt: hydrochloride) [Example 45, 1-[3-(2-{2-[(2R)-2-methyl-1-pyrrolidinyl]ethyl}-6-quinolinyl)phenyl]ethanone], 174 to 175 °C. For `COc1ccc(-c2ccc3nc(CCN4CCC[C@H]4C)ccc3c2)cc1` (as salt: hydrochloride) [Example 46, 6-(4-methoxyphenyl)-2-{2-[(2R)-2-methyl-1-pyrrolidinyl]ethyl}quinoline] the value was 165 °C (dec.); for `C[C@@H]1CCCN1CCc1ccc2cc(-c3ccc(C(F)(F)F)cc3)ccc2n1` (as salt: hydrochloride) [Example 47, 2-{2-[(2R)-2-methyl-1-pyrrolidinyl]ethyl}-6-[4-(trifluoromethyl)phenyl]quinoline], 143 to 145 °C (dec.). For the compound `C[C@@H]1CCCN1CCc1ccc2cc(-c3cc(F)cc(F)c3)ccc2n1` (as salt: hydrochloride) [Example 49, 6-(3,5-difluorophenyl)-2-{2-[(2R)-2-methyl-1-pyrrolidinyl]ethyl}quinoline], the melting point lay within 164 to 165 °C. For `C[C@@H]1CCCN1CCc1ccc2cc(C(=O)c3cccc(F)c3)ccc2n1` (as salt: hydrochloride) [Example 50, (3-fluorophenyl)(2-{2-[(2R)-2-methyl-1-pyrrolidinyl]ethyl}-6-quinolinyl)methanone] the value was 162 to 164 °C (dec.); for `C[C@@H]1CCCN1CCc1ccc2cc(-c3cccnc3)ccc2n1` (as salt: hydrochloride) [Example 51, 2-{2-[(2R)-2-methyl-1-pyrrolidinyl]ethyl}-6-(3-pyridinyl)quinoline], 205 to 207 °C; for `C[C@@H]1CCCN1CCc1ccc2cc(-c3ccncc3)ccc2n1` (as salt: hydrochloride) [Example 107, 2-[2-(2R-Methyl-pyrrolidin-1-yl)-ethyl]-6-pyridin-4-yl-quinoline], 145 to 147 °C. For `C[C@@H]1CCCN1CCc1ccc2cc(-c3ccc(Cl)nc3Cl)ccc2n1` (as salt: hydrochloride) [Example 111, 6-(2,6-Dichloro-pyridin-3-yl)-2-[2-(2(R)-methyl-pyrrolidin-1-yl)-ethyl]-quinoline] the value was 105 to 107 °C. `C[C@@H]1CCCN1CCc1ccc2cc(-c3cncnc3)ccc2n1` (as salt: hydrochloride) [Example 113, 2-[2-(2(R)-Methyl-pyrrolidin-1-yl)-ethyl]-6-pyrimidin-5-yl-quinoline]: the melting point was in the range of 160 to 162 °C. For `C[C@@H]1CCCN1CCc1ccc2cc(-c3ccc(Cl)cc3)ccc2n1` (as salt: hydrochloride) [Example 117, 6-(4-Chloro-phenyl)-2-[2-(2(R)-methyl-pyrrolidin-1-yl)-ethyl]-quinoline] the value was 154 to 155 °C; for `Cc1ccc(-c2ccc3nc(CCN4CCC[C@H]4C)ccc3c2)c(C)n1` (as salt: hydrochloride) [Example 118, 6-(2,6-Dimethyl-pyridin-3-yl)-2-[2-(2(R)-methyl-pyrrolidin-1-yl)-ethyl]-quinoline], 176 to 177 °C. For `Cc1noc(C)c1-c1ccc2nc(CCN3CCC[C@H]3C)ccc2c1` (as salt: hydrochloride) [Example 120, 6-(3,5-Dimethyl-isoxazol-4-yl)-2-[2-(2(R)-methyl-pyrrolidin-1-yl)-ethyl]-quinoline] the value was 174 to 175 °C; for `COC(=O)c1ccc(-c2ccc3nc(CCN4CCC[C@H]4C)ccc3c2)cc1` (as salt: hydrochloride) [Example 121, 4-{2-[2-(2(R)-Methyl-pyrrolidin-1-yl)-ethyl]-quinolin-6-yl}-benzoic acid methyl ester], 172 to 174 °C. `CSc1ccc(-c2ccc3nc(CCN4CCC[C@H]4C)ccc3c2)cc1` (as salt: hydrochloride) [Example 122, 2-[2-(2(R)-Methyl-pyrrolidin-1-yl)-ethyl]-6-(4-methylsulfanyl-phenyl)-quinoline]: the melting point lay in the range of 158 to 159 °C. For `C[C@@H]1CCCN1CCc1ccc2cc(-c3ccc(F)nc3)ccc2n1` (as salt: hydrochloride) [Example 123, 6-(6-Fluoro-pyridin-3-yl)-2-[2-(2(R)-methyl-pyrrolidin-1-yl)-ethyl]-quinoline] the value was 162 to 163 °C; for `C[C@@H]1CCCN1CCc1ccc2cc(-c3ccc(C#N)cc3)ccc2c1` (as salt: tartrate) [Example 1, 4-(6-{2-[(2R)-2-methyl-1-pyrrolidinyl]ethyl}-2-naphthyl)benzonitrile], 157.4 to 158.1 °C. For `C[C@@H]1CCCN1CCc1ccc2cc(-c3ccc(C#N)cc3)ccc2n1` (as salt: tartrate) [Example 42, 4-(2-{2-[(2R)-2-methyl-1-pyrrolidinyl]ethyl}-6-quinolinyl)benzonitrile] the value was 164 °C; for `C[C@@H]1CCCN1CCc1ccc2cc(-c3cccc(C#N)c3)ccc2n1` (as salt: tartrate) [Example 44, 3-(2-{2-[(2R)-2-methyl-1-pyrrolidinyl]ethyl}-6-quinolinyl)benzonitrile], 172 °C; for `COc1ccc(-c2ccc3nc(CCN4CCC[C@H]4C)ccc3c2)cn1` (as salt: tartrate) [Example 108, 6-(6-Methoxy-pyridin-3-yl)-2-[2(R)-(2-methyl-pyrrolidin-1-yl)-ethyl]-quinoline], 132 to 134 °C. For `C[C@@H]1CCCN1CCc1ccc2cc(-c3ccc(F)nc3F)ccc2n1` (as salt: tartrate) [Example 109, 6-(2,6-Difluoro-pyridin-3-yl)-2-[2-(2R-methyl-pyrrolidin-1-yl)-ethyl]-quinoline] the value was 142 to 143 °C. Compound `C[C@@H]1CCCN1CCc1ccc2cc(-c3ccc(Cl)nc3)ccc2n1` (as salt: tartrate) [Example 110, 6-(6-Chloro-pyridin-3-yl)-2-[2-(2(R)-methyl-pyrrolidin-1-yl)-ethyl]-quinoline] returned a melting point of 167 to 168 °C. For `C[C@@H]1CCCN1CCc1ccc2cc(-c3ccc(N(C)C)cc3)ccc2n1` (as salt: tartrate) [Example 115, Dimethyl-(4-{2-[2-(2(R)-methyl-pyrrolidin-1-yl)-ethyl]-quinolin-6-yl}-phenyl)-amine] the value was 155 to 156 °C; for `CC(=O)c1ccc(-c2ccc3nc(CCN4CCC[C@H]4C)ccc3c2)cc1` (as salt: tartrate) [Example 116, 1-(4-{2-[2-(2(R)-Methyl-pyrrolidin-1-yl)-ethyl]-quinolin-6-yl}-phenyl)-ethanone], 152 to 154 °C. For `C[C@@H]1CCCN1CCc1ccc2cc(-c3cncc(C#N)c3)ccc2n1` (as salt: tartrate) [Example 124, 5-{2-[2-(2(R)-Methyl-pyrrolidin-1-yl)-ethyl]-quinolin-6-yl}-nicotinonitrile] the value was 100 to 102 °C. For `C[C@@H]1CCCN1CCc1ccc2cc(-c3cccc(C#N)c3)ccc2c1` [Example 7, 3-(6-{2-[(2R)-2-methyl-1-pyrrolidinyl]ethyl}-2-naphthyl)benzonitrile] the value was 228.5 to 231.6 °C.

For the origin of these results see patent publication US8273767B2, “Bicyclic-substituted amines as histamine-3 receptor ligands” (Abbott Laboratories, priority 2002, dated 2012).
